Data from US8420335B2, “Inhibition of GASC1” (Kobenhavns Universitet, priority 2006, dated 2013).
“Also recorded” adds a separate entry of the source. Read-outs that look alike come from different tables or passages of the source. Each block holds one molecule with its values, some of them ahead of it.

Assays:
GASC1 = biological target: T1, GASC1 (Homo sapiens, UniProt Q9H3R0); experiment: Demethylation assay: recombinant His-GASC1 with bulk histones or H3K9me3 peptide, western blotting; assay type: biochemical
T1 construct: Full-length amino-terminally hexahistidine-tagged human GASC1 baculovirus transfer vector; made in house; host or cells: baculovirus-infected insect cells (pAcHLT-A transfer vector, Bakpak6)
T1 sequence (Q9H3R0 1-1056): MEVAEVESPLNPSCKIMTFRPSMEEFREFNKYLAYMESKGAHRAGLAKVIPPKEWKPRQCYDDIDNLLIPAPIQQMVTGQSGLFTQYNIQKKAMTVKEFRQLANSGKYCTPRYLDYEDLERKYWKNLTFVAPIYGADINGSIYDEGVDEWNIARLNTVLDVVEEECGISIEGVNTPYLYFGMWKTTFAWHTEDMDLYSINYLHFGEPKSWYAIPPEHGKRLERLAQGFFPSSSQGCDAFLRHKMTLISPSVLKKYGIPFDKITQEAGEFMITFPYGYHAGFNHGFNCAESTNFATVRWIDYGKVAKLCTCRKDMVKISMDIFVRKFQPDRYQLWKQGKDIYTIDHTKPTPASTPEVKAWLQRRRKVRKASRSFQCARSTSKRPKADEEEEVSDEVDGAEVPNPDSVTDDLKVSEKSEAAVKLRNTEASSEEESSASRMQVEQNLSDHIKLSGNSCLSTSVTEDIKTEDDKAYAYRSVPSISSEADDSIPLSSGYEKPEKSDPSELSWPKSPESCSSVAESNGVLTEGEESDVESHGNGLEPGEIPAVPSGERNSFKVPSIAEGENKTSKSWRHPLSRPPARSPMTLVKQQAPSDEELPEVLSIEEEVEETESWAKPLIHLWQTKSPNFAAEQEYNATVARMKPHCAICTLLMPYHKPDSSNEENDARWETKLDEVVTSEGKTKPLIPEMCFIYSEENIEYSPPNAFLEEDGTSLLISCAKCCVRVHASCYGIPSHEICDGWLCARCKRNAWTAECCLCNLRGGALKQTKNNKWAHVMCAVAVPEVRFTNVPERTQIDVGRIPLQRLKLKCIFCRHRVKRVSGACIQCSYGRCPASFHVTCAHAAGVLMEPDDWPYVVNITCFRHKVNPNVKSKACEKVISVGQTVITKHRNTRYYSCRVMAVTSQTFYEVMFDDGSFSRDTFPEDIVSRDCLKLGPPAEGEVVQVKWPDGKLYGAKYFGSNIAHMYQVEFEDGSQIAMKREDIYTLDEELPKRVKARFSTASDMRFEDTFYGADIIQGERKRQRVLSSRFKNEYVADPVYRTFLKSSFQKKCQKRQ

KYSE-150 cells = experiment: Overnight quercetin treatment of KYSE-150 cells: H3K9me3 by immunofluorescence and western blotting, growth, senescence; assay type: cell-based, human
U2OS = experiment: Quercetin treatment of U2OS cells: H3K9me3, senescent-like phenotype, growth; assay type: cell-based, human; conditions: low/moderate GASC1 level
KYSE-450 cells = experiment: Quercetin treatment of KYSE-450 cells: H3K9me3, senescent-like phenotype, growth; assay type: cell-based, human; conditions: KYSE-450, low/moderate GASC1 level
Description: (§1) The biological effects of quercetin have previously been attributed to inhibition of topoisomerase I^43, modulation of protein and lipid kinase signalling pathways^44 and scavenging of reactive oxygen species^45, In light of the present findings it is tempting to speculate that the anti-cancer effect of quercetin might at least partially by explained by its inhibitory effect on GASC1 and other members of the JMJD2 subfamily.

WI38 = experiment: Quercetin treatment of WI38 cells: H3K9me3, senescent-like phenotype, growth; assay type: cell-based; conditions: WI38, low/moderate GASC1 level
Description: as §1

[1] = His-GASC1, bulk histones, co-factors FeSO4 and α-ketoglutarate, 30 min at 37° C., western blotting

SMILES: [Cl-].[Cl-].[Co+2] [CoCl2]
- inhibition of GASC1-mediated demethylation of H3K9me3 (GASC1): inhibit GASC1 demethylation activity; also recorded: able to inhibit the demethylation reaction effectively

- GASC1 demethylation of H3K9me3 in the presence of EDTA (GASC1; EDTA (chelating iron), 30 min at 37° C., western blotting): significantly reduced
SMILES: O=C(O)CN(CCN(CC(=O)O)CC(=O)O)CC(=O)O [EDTA]

SMILES: O=C(O)CNC(=O)C(=O)O [N-oxalylglycine]
- inhibition of GASC1-mediated demethylation of H3K9me3 (GASC1; [1]): able to inhibit the demethylation reaction effectively

SMILES: O=S(=O)([O-])[O-].[Ni+2] [NiSO4]
- inhibition of GASC1-mediated demethylation of H3K9me3 (GASC1; [1]): inhibit GASC1 demethylation activity; also recorded: able to inhibit the demethylation reaction effectively

SMILES: O=c1c(O)c(-c2ccc(O)c(O)c2)oc2cc(O)cc(O)c12 [quercetin]
- growth rate (KYSE-150 cells; data not shown): marked decrease of growth rate
- phenotype (cell morphology, SAHFs, β-gal staining) (KYSE-150 cells; data not shown): senescent-like phenotype
- H3K9 trimethylation (KYSE-150 cells; immunofluorescence and western blotting): staggering increase in H3K9 trimethylation
- H3K9me3 increase, senescent-like phenotype and growth inhibition compared with KYSE-150 (U2OS): did not display the same increase in H3K9me3 nor the same senescent-like phenotype and growth inhibition
- H3K9me3 increase, senescent-like phenotype and growth inhibition compared with KYSE-150 (KYSE-450 cells): did not display the same increase in H3K9me3 nor the same senescent-like phenotype and growth inhibition
- H3K9me3 increase, senescent-like phenotype and growth inhibition compared with KYSE-150 (WI38): did not display the same increase in H3K9me3 nor the same senescent-like phenotype and growth inhibition
- inhibition of GASC1-mediated demethylation of H3K9me3 (GASC1; [1]): able to effectively inhibit GASC1-mediated demethylation of H3K9me3 in vitro
- inhibition of GASC1-mediated demethylation of H3K9me3 (GASC1; His-GASC1, bulk histones, co-factors FeSO4 and α-ketoglutarate, 30 min at 37° C., western blotting, listed as quercetine): able to inhibit the demethylation reaction effectively
